Like-named read-outs stand apart in the source and are kept apart here. Values belong to the compound of their own block, whether it stands above or below them.
What was measured:
[1] = HPLC related compounds / related substances (oxidized LACE, lipoic acid, total impurities) of LACE solutions, mixing and stability studies; format: physicochemical
Procedure: Each of the solutions was also measured for degradants of lipoic acid choline ester. As mentioned earlier, the degradation mechanism of LACE is oxidative and hydrolytic, resulting in oxidized and hydrolyzed species.
• a) HPLC Method Setup: The HPLC assay consisted of a 50 minute mobile phase gradient made up of (A) 0.05M sodium phosphate monobasic, 0.005M 1-heptane sulfonic acid sodium salt, 0.2% v/v triethylamiue, adjusted to pH 4.5 with phosphoric acid; and (B) acetonitrile. The analytical column used is a YMC Pack ODS AO (4.6×250 mm, 5 μm, 120 Å), P/N AQ125052546WT; the analytical detection wavelength is 225 nm.
The eve dropper bottles with the two formulations were stored at 25° C. in a temperature-controlled incubator, and 0.5 mL (about 10 drops) sampled at each time point for analysis of related substances (by HPLC). The nitrogen blanket was not replenished, so some air got into the bottle with each sampling. This experiment was an early investigation of stability at room temperature (25±0.1° C.) with no protection from oxygen with continued sampling.
For the stability studies on both the clinical LACE-Chloride and the prototype LACE-Iodide formulation with a 1:1 molar ratio of HP-B-CD to LACE, the formulations were filtered, filled into LDPE eye dropper bottles, blanketed with nitrogen, and then placed inside barrier foil pouches with an oxygen scavenger. It is likely that some oxygen was still present in the pouch to start. After the first time point following T=0, however, the rise in oxidized LACE species stops, even at elevated temperatures, likely due to depletion of the remaining oxygen (FIG. 20).

[2] = Appearance of ophthalmic solution in stability studies; format: physicochemical; conditions: API (Lot# 011510)
Procedure: in an effort to stabilize the drug formulation further, systematic stability studies (5° C., 25° C. and 40° C.) on mid-scale R&D batches were undertaken with bottled EV06 Ophthalmic Solution in the presence and absence of oxygen scavenging packets contained in zip-lock, vapor impermeable foil pouches.

bovine calf cornea [3] = experiment: Corneal permeability, Franz Cell Diffusion apparatus; conditions: Study 1
Procedure: (§1) LACE is delivered from these formulations as one of two salts: LACE-chloride and LACE-iodide. […] Therefore, both LACE and lipoic acid concentrations were assayed at each time point to evaluate permeability.
(§2) • a. 6 bovine eyeballs are dissected in a sterile laminar flow hood. • b. The corneas are extracted from the eyeball, briefly rinsed in sterile double-distilled water, and submerged in 3 mL of glutathione buffer (0.1% glutathione, oxidized, 6 mM sodium phosphate, pH 7, sterile-filtered) in a sterile culture dish. • c. The corneas are kept at 5° C. and used within 24 hours of excision. • d. Six 5 mL Franz vertical diffusion cells are cleaned with distilled water and isopropanol and air dried in a laminar flow cabinet prior to set up. • e. A small stir bar is placed within the receptor fluid chamber. The bottle of receptor fluid (5 mM phosphate-buffered saline with 0.1% Tween 20, pH 7.4, sterile-filtered) is tared on an analytical balance, and 4.5 mL of it is added to each Franz cell. The exact weight of the starting receptor fluid is recorded. • f. The cornea is gently rinsed of glutathione buffer with receptor fluid, and is placed on the donor pedestal. The donor chamber is placed on top of the cornea, and the entire assembly is fastened to the pedestal with a metal clip. At this point, 0.5 mL of additional receptor fluid is added via the sampling arm, until the fluid level reaches the point marked on the arm with a black line. The weight of this addition is also recorded. • g. The Franz diffusion apparatus is connected to a heater unit, and the temperature is raised to 37° C. When that temperature is reached, the formulation (“the donor solution”) is added to the donor chamber. • h. 0.2 mL of donor solution is added. Both the donor chamber and sampling arm are covered by paraffin when not in use to prevent evaporation. • i. Sampling is done via Drummond pipet, and only through the sampling arm. 200-300 μL of receptor fluid is sampled from each cell at each time point. • j. The sample is added to an amber glass HPLC vial with 0.3 mL glass insert, and is weighed. […]

[4] = RP-HPLC (UV / ELSD) measurement of LACE micellar / associative (aggregated) species; format: physicochemical; conditions: for equilibrium concentration of aggregates (% of the API peak): aqueous solution
Source text: While searching for causes for irritation, it was discovered that LACE, when dissolved in water, forms micelles and micellar aggregates, common to compounds that are amphiphilic in nature. As definition, examples of micelle-forming compounds are phosphatidyl choline, pegylated phosphatidyl choline, PEG-stearate, […], etc. While the micelle-formation phenomenon of LACE is not unexpected due to the amphiphilic nature of the molecule, the formation of these aggregates at lower temperatures were surprising. The presence of the aggregates was measured by a RP-HPLC method developed in-house. The measurement could be performed both with HPLC-UV and HPLC-ELSD. […] The equilibrium concentration of LACE Iodide aggregates are 39-41% of the API peak. In comparison, the equilibrium concentration of LACE chloride is <1%, after dispersion with agitated stirring.
• Two 200-g batches of 1.5% LACE Chloride were prepared at 25° C. after vehicle was deoxygenated with bubbled nitrogen. […] At time-points of 1 h, 3 h, 4 h, 6 h, 8 h, 9 h, and 24 h, about 5-15 mL was removed by syringe and sterile-filtered into eye-dropper bottles (5 mL/bottle), without nitrogen overlay in the bottle (apparatus was in use for the bulk batches). • Samples of all time-points were diluted to 10 mg/g, and then injected for RP-HPLC analysis with ELK.) detection within 30 minutes of removal from the bulk solution. • After the 24-hour time-point, bulk solutions were sterile-filtered, and each divided into two ˜50 mL portions—one held at 5° C., the other 50-mL portion held at 25° C. All portions were overlaid with nitrogen blown into the vessel. • At the end of the additional 24-hour hold time, each portion was filled into eye-dropper bottles with a nitrogen overlay in the bottle.
The final diluted LACE concentration was targeted to the level appropriate for RP-HPLC analysis (12.8 mg/mL of LACE-Iodide).
The approach was to generate complete inclusion complexes of LACE-Iodide in HP-B-CD, thus preventing any opportunity of aggregation of LACE molecules. Several batches of formulation were prepared using varying molar ratios of LACE-Iodide to HP-B-CD and the growth of aggregative species assessed over time. The formulations were stored at 5° C. The formation of associative species as measured by reverse phase HPLC was then reported as the area percent relative to the main LACE peak area.

[5] = General properties of LACE (solubility, solution pH, Log P, hygroscopicity); format: physicochemical; conditions: for solubility: read-out: Solubility Profile
ocular surface = experiment: Ocular irritation in rabbit irritation model (rabbit Draize model); format: in vivo
Source text: Another issue that confounded the pharmaceutical development of LACE ophthalmic solutions was incidences of ocular surface irritation observed in-vivo in a rabbit irritation model. The invention details unexpected parameters that contributed to, or caused ocular irritation and processes to eliminate or minimize these parameters. These parameters were not related to the formulation composition or properties of the drug substance, factors that normally correlated or attributed to ocular irritation.
FIGS. 12A and 12B generally provide a snapshot of the correlation of irritation to the micellar LACE species over a number of batches compounded.
Example 16 established the correlation between concentration of associative species and ocular irritation in an in-vivo model (rabbit Draize model).

[6] = Osmolality of formulation; format: physicochemical
Procedure: • The requisite osmolality range for drug-containing formulations and placebo is 280-320 mOsm/kg. Preferably, all LACE formulations need to he within 290-310 mOsm/Kg. • Since LACE has contributions to osmolality, each formulation will have varying concentrations of glycerol to achieve the requisite osmolality.
The target for Total Osmolality was 300 mOsm/kg.
Accordingly, a full series of solutions was prepared with slightly altered target osmolalities for the solutions without LACE, and therefore different target glycerol contents. All solutions were prepared using the same Alanine/Benzalkonium Chloride, pH 4.5 stock solution used in the placebos, so that the final composition was consistently: • 0.5% (5 mg/g) Alanine • 0.005% (0.05 mg/g) Benzalkonium Chloride • Small amounts of 1N Sodium Hydroxide, 1N Hydrochloric Acid, to adjust pH to 4.5 • Water for Inhalation (added to final weight of 5.0 g per formulation)

bovine calf cornea [7] = system: bovine calf cornea
Procedure: as §1, §2

[8] = API (Lot# 011510), RS analyzed Mar. 22, 2016
[9] = API (drug substance), lot AC-LACE-05-39 stored at 5 °C
[10] = Table 16-3, API (drug substance)
[11] = Table 17-1, API (drug substance)
[12] = Table 17-2, API (drug substance)
[13] = Table 17-3, API (drug substance)
[14] = Table 18-1, API (drug substance)
[15] = Table 18-2, API (drug substance)

Structure (SMILES): C[N+](C)(C)CCOC(=O)CCCC[C@@H]1CCSS1.[I-] [API (Lot# 011510)]
API Related Substances, Oxid. LACE RRT 0.48 [1, 8]: 0.08%
API Related Substances, Oxid. LACE RRT 0.52 [1, 8]: 0.04%
API Related Substances, RRT 1.74 [1, 8]: 0.24%
API Related Substances, RRT 2.00 [1, 8]: 0.20%
API Related Substances, Total Imp. [1, 8]: 0.56%
Appearance [2]: Complies

Structure (SMILES): C[N+](C)(C)CCOC(=O)CCCC[C@@H]1CCSS1.[Cl-] [API]
Related Substances RRT 1.00 API ([1]; API (drug substance)): 99.13 Area %
Related Substances RRT 1.65 ([1]; API (drug substance)): 0.34 Area %
Related Substances RRT 4.05 Lipoic Acid ([1]; API (drug substance)): 0.13 Area %
Related Substances, RRT 0.49 ([1]; API (drug substance)): 0.19 Area %
Related Substances, RRT 0.61 Oxidized Lace ([1]; API (drug substance)): 0.04 Area %
Related Substances, RRT 0.68 Oxidized Lace ([1]; API (drug substance)): 0.04 Area %
Related Substances, RRT 1.36 ([1]; API (drug substance)): 0.34 Area %
Related Substances, RRT 1.52 ([1]; API (drug substance)): 0.34 Area %
Related Substances, RRT 1.73 ([1]; API (drug substance)): 0.17 Area %
Related Substances, RRT 1.86 ([1]; API (drug substance)): 0.17 Area %
Related Substances, RRT 4.11 Lipoic Acid ([1]; API (drug substance)): 0.13 Area %
Total Impurities ([1]; API (drug substance)): 0.87 Area %
Related Substances RRT 0.51 ([1]; API (drug substance), lot AC-LACE-05-21 stored at 5 °C): 0.19 Area %
Related Substances RRT 0.51 [1, 9]: 0.10 Area %
Related Substances RRT 2.28 [1, 9]: 0.17 Area %
Related Substances RRT 2.28 ([1]; API (drug substance), lot AC-LACE-05-39 stored at 25 °C): 0.13 Area %
Related Substances RRT 0.51 [1, 10]: 0.10 Area %
Related Substances RRT 0.68 [1, 10]: 0.04 Area %
Related Substances RRT 1.00 [1, 10]: 99.13 Area %
Related Substances RRT 1.65 [1, 10]: 0.34 Area %
Related Substances RRT 2.28 [1, 10]: 0.17 Area %
Related Substances RRT 4.05 [1, 10]: 0.13 Area %
Total Impurities [1, 10]: 0.87 Area %
Related Substances RRT 0.50 [1, 11]: 0.20 Area %
Related Substances RRT 0.59 [1, 11]: 0.04 Area %
Related Substances RRT 1.27 [1, 11]: 0.34 Area %
Related Substances RRT 1.42 [1, 11]: 0.17 Area %
Related Substances RRT 3.00 [1, 11]: 99.13 Area %
Related Substances RRT 3.07 [1, 11]: 0.13 Area %
Total Impurities [1, 11]: 0.87 Area %
Related Substances RRT 0.50 [1, 12]: 0.20 Area %
Related Substances RRT 0.59 [1, 12]: 0.04 Area %
Related Substances RRT 1.00 [1, 12]: 99.13 Area %
Related Substances RRT 1.27 [1, 12]: 0.34 Area %
Related Substances RRT 1.42 [1, 12]: 0.17 Area %
Related Substances, Lipoic Acid (RRT not given) [1, 12]: 0.13 Area %
Total Impurities [1, 12]: 0.87 Area %
Related Substances RRT 0.50 [1, 13]: 0.20 Area %
Related Substances RRT 0.59 [1, 13]: 0.04 Area %
Related Substances RRT 1.00 [1, 13]: 99.13 Area %
Related Substances RRT 1.27 [1, 13]: 0.34 Area %
Related Substances RRT 1.42 [1, 13]: 0.17 Area %
Related Substances RRT 3.07 Lipoic Acid [1, 13]: 0.13 Area %
Total Impurities [1, 13]: 0.87 Area %
Related Substances RRT 0.51 [1, 14]: 0.10 Area %
Related Substances RRT 0.68 [1, 14]: 0.04 Area %
Related Substances RRT 1.00 API [1, 14]: 99.13 Area %
Related Substances RRT 1.65 [1, 14]: 0.34 Area %
Related Substances RRT 2.28 [1, 14]: 0.17 Area %
Related Substances RRT 4.05 Lipoic Acid [1, 14]: 0.13 Area %
Total Impurities [1, 14]: 0.87 Area %
Related Substances RRT 0.51 [1, 15]: 0.10 Area %
Related Substances RRT 0.68 [1, 15]: 0.04 Area %
Related Substances RRT 1.00 API [1, 15]: 99.13 Area %
Related Substances RRT 1.65 [1, 15]: 0.34 Area %
Related Substances RRT 2.28 [1, 15]: 0.17 Area %
Related Substances RRT 4.05 Lipoic Acid [1, 15]: 0.13 Area %
Total Impurities [1, 15]: 0.87 Area %

Structure (SMILES): C[N+](C)(C)CCOC(=O)CCCC[C@@H]1CCSS1 [LACE Chloride, Lipoic Acid Choline Ester Chloride]
permeated species (bovine calf cornea [3]): somewhat more intact LACE permeated
equilibrium concentration of aggregates (% of the API peak) ([4]; after dispersion with agitated stirring): < 1%
percent micellar species (% of the main LACE API Peak) ([4]; formulated under argon and refrigerated conditions): 8-10%
Hygroscopicity [5]: Highly hygroscopic
Solution pH [5]: 7-7.5
logP [5]: < 2
solubility ([5]; in water): > 50 mg/mL
solubility ([5]; organic solvent or mixture, in acetonitrile): > 4 mg/mL
ocular irritation (ocular surface; solution formulated at refrigerated temperatures): extremely irritating

Structure (SMILES): C[N+](C)(C)CCOC(=O)CCCC[C@@H]1CCSS1 [LACE, lipoic acid choline ester]
additional osmolality for every 1% LACE, average ([6]; earlier formulations): 48 mOsm/kg
additional osmolality for every 1% LACE ([6]; earlier formulations, range): 44-55 mOsm/kg
effect of LACE on osmolality for every 1% ([6]; from Table 6 solutions): 57-60 mOsm/kg
ocular irritation (ocular surface; compounded at room temperature): comfortable and non-irritating

equilibrium concentration of aggregates (% of the API peak) [4]: 39-41%
aggregated species (% of the API) ([4]; at the end of 8 hours of mixing): ≤ 39%
% Associative Species at T0 ([4]; direct dissolution: Buffer with 0.6% NaCl, 1.5% PG): 40.9%
% Associative Species at T0 ([4]; direct dissolution: Buffer with 1.8% NaCl): 34.7%
% Associative Species at T0 ([4]; direct dissolution: Ethanol (78% final), then Buffer (22%)): 0.0%
% Associative Species at T0 ([4]; direct dissolution: Propylene Glycol (10%), then Buffer (90%)): 11.7%
overall percent of drug permeated (bovine calf cornea [7]): 3-7%
permeated species (bovine calf cornea [7]): almost entirely lipoic acid
Structure (SMILES): C[N+](C)(C)CCOC(=O)CCCCC1CCSS1.[I-] (stereo not shown) [LACE Iodide]

Reference: patent US20230135366A1, “LIPOIC ACID CHOLINE ESTER COMPOSITIONS AND METHODS TO STABILIZE INTO […] RELEVANT DRUG PRODUCTS” (NOVARTIS AG, priority 2016, published 2023)
